In PubChem BioAssay AID652123 (The Scripps Research Institute Molecular Screening Center, 2013):
Active and inactive are the calls of the source. The rule behind the calls is not given here.

target: Hepatocyte nuclear factor 4-alpha (Homo sapiens) (UniProt P41235); assay: HNF4 dimerization inhibitors, dose response, counter-screen for ABHD5-PLIN5 interaction inhibitor project, biochemical, luminescence, round 2 (AID 652123); details: HNF4 dimerization biochemical luminescence assay
Sequence (P41235 whole entry, looked up): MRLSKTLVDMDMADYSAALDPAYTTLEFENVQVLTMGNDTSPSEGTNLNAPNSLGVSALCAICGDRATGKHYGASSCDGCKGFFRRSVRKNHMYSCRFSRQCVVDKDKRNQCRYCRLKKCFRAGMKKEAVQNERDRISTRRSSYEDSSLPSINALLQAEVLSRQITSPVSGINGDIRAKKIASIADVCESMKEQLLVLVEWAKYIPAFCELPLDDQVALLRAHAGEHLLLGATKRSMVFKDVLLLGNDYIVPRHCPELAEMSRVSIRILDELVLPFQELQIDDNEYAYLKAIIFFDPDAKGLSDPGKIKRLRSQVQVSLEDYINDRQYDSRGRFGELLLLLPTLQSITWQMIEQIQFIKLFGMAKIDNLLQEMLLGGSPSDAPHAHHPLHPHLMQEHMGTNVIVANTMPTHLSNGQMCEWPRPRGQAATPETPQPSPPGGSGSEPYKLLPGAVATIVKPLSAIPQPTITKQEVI

Compound	IC50
CCS(=O)(=O)c1ncc(Cl)c(C(=O)Nc2ccc(S(N)(=O)=O)cc2)n1	5.08 µM
CCCC(=O)Nc1ccc2c(c1)C(=O)N(C)c1ccccc1O2	> 39.8 µM (inactive)
O=C(Cc1cccc(F)c1)N1CCN(S(=O)(=O)c2ccc3c(c2)OCCO3)CC1	> 39.8 µM (inactive)
Cc1ccc(CS(=O)(=O)c2ncc(Cl)c(C(=O)Nc3cccc(C(F)(F)F)c3)n2)cc1	3.09 µM
O=C(c1nc(S(=O)(=O)Cc2ccccc2)ncc1Cl)N(Cc1ccccc1)Cc1ccco1	1.35 µM
CN1C(=O)c2ccccc2Oc2ccc(NC(=O)c3cc4ccccc4[nH]3)cc21	> 39.8 µM (inactive)
Cc1ccc(NC(=O)c2nc(S(C)(=O)=O)ncc2Cl)cc1	2.44 µM
O=C(Nc1ccc2ccccc2c1)c1nc(S(=O)(=O)Cc2ccccc2)ncc1Cl	2.42 µM
CCS(=O)(=O)c1ncc(Cl)c(C(=O)Nc2ccc(C)cc2)n1	4.01 µM
CC(NC(=O)CN1CCN(S(=O)(=O)c2ccc3c(c2)OCCCO3)CC1)c1cc2ccccc2o1 (centres undefined)	> 39.8 µM (inactive)
CCCS(=O)(=O)c1ccc(Cl)c(C(=O)Nc2ccc(C(=O)OCC)cc2)c1	5.66 µM
Cc1ccc(CS(=O)(=O)c2ncc(Cl)c(C(=O)Nc3nnc(C(C)C)s3)n2)cc1	> 39.8 µM (inactive)
Cc1ccc(CS(=O)(=O)c2ncc(Cl)c(C(=O)NCc3ccc4c(c3)OCO4)n2)cc1	1.87 µM
CN1C(=O)c2ccccc2Oc2ccc(NC(=O)c3cccs3)cc21	> 39.8 µM (inactive)
CCCS(=O)(=O)c1ncc(Cl)c(C(=O)Nc2ccc(C(=O)OC)cc2)n1	4.99 µM
O=C(Cc1ccc2c(c1)CCCC2)N1CCN(S(=O)(=O)c2ccc3c(c2)OCCO3)CC1	inactive
CS(=O)(=O)c1ncc(Cl)c(C(=O)Nc2ccc(C(F)(F)F)cc2)n1	1.15 µM
Cc1ccc(CS(=O)(=O)c2ncc(Cl)c(C(=O)Nc3cccc4ccccc34)n2)cc1	2.79 µM
CN1C(=O)c2ccccc2Sc2ccc(NC(=O)NCCCc3ccccc3)cc21	> 39.8 µM (inactive)
CN1C(=O)c2ccccc2Sc2ccc(NC(=O)NCCc3cccs3)cc21	> 39.8 µM (inactive)
CC(C)N1C(=O)c2ccccc2Oc2ccc(NC(=O)c3ccccc3)cc21	> 39.8 µM (inactive)
CCCC(=O)Nc1ccc2c(c1)C(=O)N(C)c1cc(C)ccc1O2	> 39.8 µM (inactive)
COc1ccc(CCNC(=O)c2nc(S(=O)(=O)Cc3ccc(F)cc3)ncc2Cl)cc1OC	1.94 µM
CN1C(=O)c2ccccc2Sc2ccc(NC(=O)NCCc3ccccc3)cc21	> 39.8 µM (inactive)
NS(=O)(=O)c1ccc(NC(=O)c2nc(S(=O)(=O)Cc3ccccc3)ncc2Cl)cc1	3.81 µM

Further lines, results first:

IC50	Compound
> 39.8 µM (inactive)	CCCC(=O)N(CCCN1CCOCC1)c1nc2ccc(Cl)cc2s1
> 39.8 µM (inactive)	CN(C)CCCN(C(=O)C1CCCCC1)c1nc2cc(Cl)ccc2s1
> 39.8 µM (inactive)	CCCCCNC(=O)Nc1ccc2c(c1)Sc1ccccc1C(=O)N2C
> 39.8 µM (inactive)	Cc1ccc2c(CC(=O)N3CCN(S(=O)(=O)c4ccc5c(c4)OCCCO5)CC3)coc2c1C
> 39.8 µM (inactive)	CN(C)CCCN(C(=O)C1CCCCC1)c1nc2cc(Br)ccc2s1
> 39.8 µM (inactive)	CCCNC(=O)Nc1ccc2c(c1)N(CC)C(=O)c1ccccc1S2
> 39.8 µM (inactive)	CCCCCCNC(=O)Nc1ccc2c(c1)Sc1ccccc1C(=O)N2C
> 39.8 µM (inactive)	COc1ccc(CC(=O)N2CCCN(S(=O)(=O)c3ccc(C)cc3)CC2)cc1OC
> 39.8 µM (inactive)	CCCCCCCNC(=O)Nc1ccc2c(c1)Sc1ccccc1C(=O)N2C
1.38 µM	CN(C(=O)c1nc(S(C)(=O)=O)ncc1Cl)c1ccccc1
> 39.8 µM (inactive)	CN(C)CCCN(C(=O)Cc1ccc(F)cc1)c1nc2ccc(Cl)cc2s1
2.17 µM	Cc1ccc(CS(=O)(=O)c2ncc(Cl)c(C(=O)N3CCN(C)CC3)n2)cc1
> 39.8 µM (inactive)	CN(C)CCCN(C(=O)c1cc2ccccc2oc1=O)c1nc2ccc(Cl)cc2s1
> 39.8 µM (inactive)	CN(C)CCCN(C(=O)CCc1ccccc1)c1nc2ccc(Cl)cc2s1
